In patent publication US5840936A, “Aminosterol compounds useful as inhibitors of the sodium/proton exchanger (NHE)” (priority 1995, dated 1998):
Entries after “also recorded” stand apart in the source; their conditions may differ.

Experiments:
[1] = test system: Xenopus tadpoles, stage 59-60; assay: Xenopus tadpole assay; settings: for Tadpole assay, observed effects: 10 μg/ml; for Pharmacologic similarity in tadpole assay: in vivo
[2] = test system: chick embryo vitelline capillaries; assay: Chick embryo vitelline capillary regression assay; type: in vivo; design: key to Vitelline capillary regression: +: Vascular reactivity; 0: No vascular reactivity; +/-: Equivocal reactivity
Procedure: Using the chick embryo vitelline capillaries assay, compounds were tested for their ability to induce capillary regression. Each compound was applied in 0.1 ml of 15% Ficol 400 and PBS onto the embryo, and vascular regression was assessed after 60 minutes.
The 3-day chick embryo consists of an embryonic disc from which numerous vessels emerge and return, forming a "FIG. 8"-shaped structure--the embryo in the center with vascular loops extending outward over both poles. […] Following a lag period of around 15 minutes, the constriction of continuity between capillary and secondary vessels, generally on the "venous" side, was observed. Continued pulsatile blood flow progressed, resulting in a "swelling" of the blind tube, followed by a pinching off of the remaining connection and formation of an enclosed vascular sac resembling a "blood island." This process progressed until only the largest vessels remained intact.

HM = HM MTT assay; type: cell-based; settings: Table II; read-out: HM MTT assay, Minimum Effective Concentration
NHE1 = settings: cited from earlier work
NHE3 = settings: cited from earlier work
NHE2 = settings: cited from earlier work
[3] = test system: L1210 lymphoblastic leukemia; assay: Mouse model of L1210 leukemia; settings: mouse, in vivo
From the text: C57B mice were inoculated with L1210 lymphoblastic leukemia cells at an inoculum that causes leukemia in 100% of animals.

[4] = Fasting blood glucose in mice; type: in vivo, male CD-1 mice
Procedure: To study the effect of steroid administrator or the NHE responsible for secretion of insulin, several of the aminosterols from shark liver were administered to fasting mice. Male CD-1 mice were assigned to one of four treatment groups. Whole blood glucose was tested using glucometer (Lifescan Glucometer II and One Touch test strips). Statistical analysis was via one-way analysis of variance (ANOVA) followed by subsequent Bonferonni's t-test.

SMILES: CC(COS(=O)(=O)O)C(=O)CC[C@@H](C)[C@H]1CC[C@H]2[C@@H]3[C@H](O)C[C@H]4C[C@@H](NCCCNCCCCN)CC[C@]4(C)[C@H]3CC[C@]12C (single isomer, unassigned) [Compound 1360]
- Tadpole assay, observed effects [1]: Swelling and lysis of certain erythrocytes occurred; also recorded: extensive vasocclusion occurred within 60 minutes throughout the tail
- Vitelline capillary regression ([2]; 1 μg applied): 0
- Effect on chick embryo vessels ([2]; 3- to 5-day chick embryo): the blood circulating through the embryonic vessels exhibited a brighter red color, reflecting a higher degree of oxygenation

SMILES: COC(=O)CC[C@@H](C)[C@H]1CC[C@H]2[C@@H]3[C@H](O)C[C@@H]4C[C@H](NCCN)CC[C@]4(C)[C@H]3CC[C@]12C [Compound 410]
- Pharmacologic similarity in tadpole assay [1]: functionally similar to compound 1437
- minimal effective concentration (HM): 2.6 µg/mL
- Vitelline capillary regression ([2]; 0.001 μg applied): 0
- Vitelline capillary regression ([2]; 0.01 μg applied): +/-
- Vitelline capillary regression ([2]; 0.1 μg applied): +/-
- Vitelline capillary regression ([2]; 1 μg applied): +

SMILES: C[C@H](CCC(=O)O)[C@H]1CC[C@H]2[C@@H]3[C@H](O)C[C@@H]4C[C@H](NCCCNCCCCNCCCN)CC[C@]4(C)[C@H]3CC[C@]12C [Compound 412]
- Pharmacologic similarity in tadpole assay [1]: pharmacologic activity similar to that seen for FX 3
- minimal effective concentration (HM): 18.1 µg/mL
- Vitelline capillary regression ([2]; 0.001 μg applied): 0
- Vitelline capillary regression ([2]; 0.01 μg applied): 0
- Vitelline capillary regression ([2]; 0.1 μg applied): 0
- Vitelline capillary regression ([2]; 1 μg applied): +

SMILES: CCCN(C)c1nc(N)c(C(=O)N=C(N)N)nc1Cl [MPA, methylpropylamiloride]
- Ki (NHE1): 0.08 µM
- Ki (NHE3): 10 µM
- Ki (NHE2): 5 µM

SMILES: COC(=O)CC[C@@H](C)[C@H]1CC[C@H]2[C@@H]3C[C@@H](O)[C@H]4C[C@H](NCCCNCCCCNCCCN)CC[C@]4(C)[C@H]3CC[C@]12C [Compound 465]
- Pharmacologic similarity in tadpole assay [1]: pharmacologic activity similar to that seen for FX 3

SMILES: COC(=O)CC[C@@H](C)[C@H]1CC[C@H]2[C@@H]3C[C@@H](O)[C@H]4C[C@H](NCCN)CC[C@]4(C)[C@H]3CC[C@]12C [Compound 431]
- Pharmacologic similarity in tadpole assay [1]: functionally similar to compound 1437

SMILES: C[C@H](CCC(=O)O)[C@H]1CC[C@H]2[C@@H]3[C@H](O)C[C@@H]4C[C@@H](NCCN)CC[C@]4(C)[C@H]3CC[C@]12C [Compound 415]
- Vitelline capillary regression ([2]; 0.001 μg applied): 0
- Vitelline capillary regression ([2]; 0.01 μg applied): +
- Vitelline capillary regression ([2]; 0.1 μg applied): +
- Vitelline capillary regression ([2]; 1 μg applied): +

SMILES: C[C@H](CCC(=O)O)[C@H]1CC[C@H]2[C@@H]3C[C@@H](O)[C@H]4C[C@@H](NCCN)CC[C@]4(C)[C@H]3CC[C@]12C [Compound 433]
- Pharmacologic similarity in tadpole assay [1]: functionally similar to compound 1437

SMILES: COC(=O)CC[C@@H](C)[C@H]1CC[C@H]2[C@@H]3[C@H](O)C[C@H]4C[C@@H](NCCCNCCCCNCCCN)CC[C@]4(C)[C@H]3CC[C@]12C [Compound 396]
- Vitelline capillary regression ([2]; 0.001 μg applied): 0
- Vitelline capillary regression ([2]; 0.01 μg applied): 0
- Vitelline capillary regression ([2]; 0.1 μg applied): 0
- Vitelline capillary regression ([2]; 1 μg applied): +

SMILES: C[C@H](CCC(=O)O)[C@H]1CC[C@H]2[C@@H]3[C@H](O)C[C@H]4C[C@H](NCCCNCCCCN)CC[C@]4(C)[C@H]3CC[C@]12C [Compound 382]
- Vitelline capillary regression ([2]; 0.001 μg applied): 0
- Vitelline capillary regression ([2]; 0.01 μg applied): 0
- Vitelline capillary regression ([2]; 0.1 μg applied): 0
- Vitelline capillary regression ([2]; 1 μg applied): +
- Vitelline capillary regression ([2]; 10 μg applied): +

SMILES: N.N.[Cl][Pt][Cl] [Cisplatin, reference compound]
- Hematological profile [3]: profound anemia by day 28

SMILES: CN(C)c1nc(N)c(C(=O)N=C(N)N)nc1Cl [DMA, dimethylamiloride]
- Ki (NHE1): 0.1 µM
- Ki (NHE3): 11 µM
- Ki (NHE2): 0.7 µM

SMILES: COC(=O)CC[C@@H](C)[C@H]1CC[C@H]2[C@@H]3[C@H](O)C[C@@H]4C[C@@H](NCCN)CC[C@]4(C)[C@H]3CC[C@]12C [Compound 409]
- Pharmacologic similarity in tadpole assay [1]: functionally similar to compound 1437
- Vitelline capillary regression ([2]; 1 μg applied): 0

SMILES: CC(C)C(CO)(CC[C@@H](C)[C@H]1CC[C@H]2[C@@H]3[C@H](O)C[C@H]4C[C@@H](NCCCNCCCCN)CC[C@]4(C)[C@H]3CC[C@]12C)OS(=O)(=O)O (single isomer, unassigned) [Compound 1437]
- Tadpole assay, observed effects [1]: Epithelium covering the embryonic portions of the animal, such as the tail and antennae, began to slough off in sheets; also recorded: the larval skin was observed to shed off in a sheet
- Hyperglycemia ([4]; i.v., 1436 in D5W, 1437 in water): caused hyperglycemia in mice
- Fasting Blood Glucose Mean ± SEM ([4]; total dose 20 mg/kg i.v. (2 × 10 mg/kg), 30 min. after 2d dose): 82 ± 15.3 mg/dL

SMILES: COC(=O)CC[C@@H](C)[C@H]1CC[C@H]2[C@@H]3C[C@@H](O)[C@H]4C[C@@H](NCCN)CC[C@]4(C)[C@H]3CC[C@]12C [Compound 432]
- Pharmacologic similarity in tadpole assay [1]: functionally similar to compound 1437

SMILES: C[C@H](CCC(=O)O)[C@H]1CC[C@H]2[C@@H]3[C@H](O)C[C@H]4C[C@@H](NCCCNCCCCN)CC[C@]4(C)[C@H]3CC[C@]12C [Compound 381]
- Vitelline capillary regression ([2]; 1 μg applied): 0

SMILES: C[C@H](CCC(=O)O)[C@H]1CC[C@H]2[C@@H]3CC[C@H]4C[C@H](NCCCNCCCCN)CC[C@]4(C)[C@H]3CC[C@]12C [Compound 318]
- Vitelline capillary regression ([2]; 1 μg applied): 0

SMILES: COC(=O)CC[C@@H](C)[C@H]1CC[C@H]2[C@@H]3[C@H](O)C[C@@H]4C[C@@H](NCCCNCCCCNCCCN)CC[C@]4(C)[C@H]3CC[C@]12C [Compound 411]
- Vitelline capillary regression ([2]; 0.001 μg applied): 0
- Vitelline capillary regression ([2]; 0.01 μg applied): 0
- Vitelline capillary regression ([2]; 0.1 μg applied): 0
- Vitelline capillary regression ([2]; 1 μg applied): +/-

SMILES: CC(C)CCC[C@@H](C)[C@H]1CC[C@H]2[C@@H]3[C@H](O)C[C@H]4C[C@@H](N)CC[C@]4(C)[C@H]3CC[C@]12C [Compound 364]
- Vitelline capillary regression ([2]; 0.001 μg applied): 0
- Vitelline capillary regression ([2]; 0.01 μg applied): 0
- Vitelline capillary regression ([2]; 0.1 μg applied): 0
- Vitelline capillary regression ([2]; 1 μg applied): +
- Vitelline capillary regression ([2]; 10 μg applied): +
- Chick embryo diss. assay, Minimum Effective Concentration ([2]; Table II): 1 µg

SMILES: COC(=O)CC[C@@H](C)[C@H]1CC[C@H]2[C@@H]3CC[C@@H]4C[C@H](NCCN)CC[C@]4(C)[C@H]3C[C@H](O)[C@]12C [Compound 416]
- Pharmacologic similarity in tadpole assay [1]: functionally similar to compound 1437
- minimal effective concentration (HM): 2.4 µg/mL

SMILES: CC(C)CCC[C@@H](C)[C@H]1CC[C@H]2[C@@H]3[C@H](O)C[C@H]4C[C@H](N)CC[C@]4(C)[C@H]3CC[C@]12C [Compound 1363]
- Pharmacologic similarity in tadpole assay [1]: potencies comparable to that of Fraction 1

SMILES: N=C(N)NC(=O)c1nc(Cl)c(N)nc1N [Amiloride]
- Ki (NHE3): 100 µM

SMILES: COC(=O)CC[C@@H](C)[C@H]1CC[C@H]2[C@@H]3CC[C@H]4C[C@@H](NCCCNCCCCNCCCN)CC[C@]4(C)[C@H]3CC[C@]12C [Compound 459]
- Pharmacologic similarity in tadpole assay [1]: pharmacologic activity similar to that seen for FX 3
- minimal effective concentration (HM): 5 µg/mL

SMILES: CC(C)CCC[C@@H](C)[C@H]1CC[C@H]2[C@@H]3[C@H](O)C[C@H]4C[C@@H](NCCCNCCCCN)CC[C@]4(C)[C@H]3CC[C@]12C [Compound 371]
- Pharmacologic similarity in tadpole assay [1]: effects like those produced by compound 1436
- Vitelline capillary regression ([2]; 0.001 μg applied): 0
- Vitelline capillary regression ([2]; 0.01 μg applied): 0
- Vitelline capillary regression ([2]; 0.1 μg applied): 0
- Vitelline capillary regression ([2]; 1 μg applied): +/-
- Vitelline capillary regression ([2]; 10 μg applied): +

SMILES: CC(C)CCC[C@@H](C)[C@H]1CC[C@H]2[C@@H]3CC[C@H]4C[C@@H](NCCCNCCCCN)CC[C@]4(C)[C@H]3CC[C@]12C [Compound 303]
- Vitelline capillary regression ([2]; 1 μg applied): 0

SMILES: COC(=O)CC[C@@H](C)[C@H]1CC[C@H]2[C@@H]3C[C@@H](O)[C@H]4C[C@@H](NCCCNCCCCNCCCN)CC[C@]4(C)[C@H]3CC[C@]12C [Compound 466]
- Pharmacologic similarity in tadpole assay [1]: pharmacologic activity similar to that seen for FX 3

SMILES: CC(C)CCC[C@@H](C)[C@H]1CC[C@H]2[C@@H]3[C@H](O)C[C@H]4C[C@H](NCCCNCCCCN)CC[C@]4(C)[C@H]3CC[C@]12C [Compound 370]
- Pharmacologic similarity in tadpole assay [1]: pharmacologic activity similar to that seen for FX 3

SMILES: COC(=O)CC[C@@H](C)[C@H]1CC[C@H]2[C@@H]3CC[C@H]4C[C@H](NCCCNCCCCNCCCN)CC[C@]4(C)[C@H]3CC[C@]12C [Compound 458]
- Pharmacologic similarity in tadpole assay [1]: pharmacologic activity similar to that seen for FX 3
- minimal effective concentration (HM): 6.8 µg/mL

SMILES: C[C@H](CCC(=O)O)[C@H]1CC[C@H]2[C@@H]3[C@H](O)C[C@@H]4C[C@@H](NCCCNCCCCNCCCN)CC[C@]4(C)[C@H]3CC[C@]12C [Compound 413]
- Pharmacologic similarity in tadpole assay [1]: effects like those produced by compound 1436
- Vitelline capillary regression ([2]; 1 μg applied): 0

SMILES: C[C@H](CCC(=O)O)[C@H]1CC[C@H]2[C@@H]3[C@H](O)C[C@@H]4C[C@H](NCCN)CC[C@]4(C)[C@H]3CC[C@]12C [Compound 414]
- Pharmacologic similarity in tadpole assay [1]: potencies comparable to that of Fraction 1
- Vitelline capillary regression ([2]; 1 μg applied): 0
